These are literature values, as cited in patent US20250026710A1, “PROCESS FOR PREPARING A BENZOATE SALT OF A 1-(3-AMINOPYRROLIDINE-1-CARBONYL)-3,4-DIPHENYLBENZENE COMPOUND” (Astex Pharmaceuticals, Inc., priority 2021, published 2025).

What is called Cmax is the maximum level reached in the sampled fluid or tissue. What is called Tmax is the time at which the peak concentration occurs.

Counter-ions that a name gives are not always drawn.

For series [1] the following is noted: under the tested conditions of WO 2021/095835.
For series [2] the following is noted: rats, dose 32 mg/5 mL/kg; listed as benzoic acid salt of Compound (A).

Regarding `CC(C)(O)Cc1ccc(-c2ccc(C(=O)N3CC[C@H](N)C3)cc2-c2ccc(C#N)c(F)c2)c(F)c1` [benzoate salt of Compound (A)], in series [1], the solid stability entry is “superior solid stability and maintains its purity up to four weeks”. Also, in series [2], the highest concentration (Cmax) is 2680 nM and the Tmax is 2.7 h.
